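Cultured in 96-well plates, cells were exposed to test compound for 48 hours across five concentrations. The concentration for 50% growth inhibition is given as GI50.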 Active and inactive are the calls of the source. No stated cut-off is given here; in the data, active = GI50 up to about 1.1 µM and inactive = higher.
What was measured:
Assay in all cases: inhibition of tumour cell growth, NCI panel, 48 h
SN12C = tested on: SN12C
HOP-92 = tested on: HOP-92
HOP-62 = tested on: HOP-62
MCF7 = tested on: MCF7
NCI-H226 = tested on: NCI-H226
RXF 393 = tested on: RXF 393
HCT-15 = tested on: HCT-15
CAKI-1 = tested on: CAKI-1
MOLT-4 = tested on: MOLT-4
SK-MEL-28 = tested on: SK-MEL-28
MDA-MB-435 = tested on: MDA-MB-435
IGROV-1 = tested on: IGROV-1
786-0 = tested on: 786-0
ACHN = tested on: ACHN
A549 = tested on: A549
TK-10 = tested on: TK-10
HCC 2998 = tested on: HCC 2998
OVCAR-8 = tested on: OVCAR-8
BT-549 = tested on: BT-549
Malme-3M = tested on: Malme-3M
K562 = tested on: K562
HT-29 = tested on: HT-29
SW-620 = tested on: SW-620
NCI-H23 = tested on: NCI-H23
SF-268 = tested on: SF-268
U-251 = tested on: U-251
A498 = tested on: A498
NCI/ADR-RES = tested on: NCI/ADR-RES
DU-145 = tested on: DU-145
NCI-H522 = tested on: NCI-H522
Hs-578T = tested on: Hs-578T
SNB-75 = tested on: SNB-75
M14 = tested on: M14
OVCAR-3 = tested on: OVCAR-3
COLO 205 = tested on: COLO 205
HCT-116 = tested on: HCT-116
EKVX = tested on: EKVX
SNB-19 = tested on: SNB-19
SK-OV-3 = tested on: SK-OV-3
T47D = tested on: T47D
PC-3 = tested on: PC-3
MDA-MB-231 = tested on: MDA-MB-231
UACC-62 = tested on: UACC-62
SK-MEL-2 = tested on: SK-MEL-2
LOX IMVI = tested on: LOX IMVI
SF-295 = tested on: SF-295
NCI-H460 = tested on: NCI-H460
OVCAR-4 = tested on: OVCAR-4
OVCAR-5 = tested on: OVCAR-5
HL-60 = tested on: HL-60
SF-539 = tested on: SF-539
UACC-257 = tested on: UACC-257
SK-MEL-5 = tested on: SK-MEL-5
UO-31 = tested on: UO-31
SR = tested on: SR
KM12 = tested on: KM12
CCRF-CEM = tested on: CCRF-CEM

Compound: CN(C)/C=N/C1CCC(C(C)(C)C)CC1 (stereo not drawn)
- GI50 (SN12C): 17.7 µM (inactive)
- GI50 (HOP-92): 15.5 µM (inactive)
- GI50 (HOP-62): 17.2 µM (inactive)
- GI50 (MCF7): 27.9 µM (inactive)
- GI50 (NCI-H226): 19.3 µM (inactive)
- GI50 (RXF 393): 19.2 µM (inactive)
- GI50 (HCT-15): 17.2 µM
- GI50 (CAKI-1): 18.9 µM (inactive)
- GI50 (MOLT-4): 12.9 µM (inactive)
- GI50 (SK-MEL-28): 15.9 µM (inactive)
- GI50 (MDA-MB-435): 18.7 µM (inactive)
- GI50 (IGROV-1): 21.5 µM (inactive)
- GI50 (786-0): 17.6 µM (inactive)
- GI50 (ACHN): 21.2 µM (inactive)
- GI50 (A549): 18.7 µM (inactive)
- GI50 (TK-10): 21.8 µM (inactive)
- GI50 (HCC 2998): 14.8 µM (inactive)
- GI50 (OVCAR-8): 15.6 µM (inactive)
- GI50 (BT-549): 18.5 µM (inactive)
- GI50 (Malme-3M): 18.4 µM (inactive)
- GI50 (K562): 15 µM (inactive)
- GI50 (HT-29): 8.69 µM (inactive)
- GI50 (SW-620): 16.9 µM (inactive)
- GI50 (NCI-H23): 17.8 µM (inactive)
- GI50 (SF-268): 28.4 µM (inactive)
- GI50 (U-251): 16.1 µM (inactive)
- GI50 (A498): 24 µM (inactive)
- GI50 (NCI/ADR-RES): 17.7 µM (inactive)
- GI50 (DU-145): 24.9 µM (inactive)
- GI50 (NCI-H522): 16.6 µM (inactive)
- GI50 (Hs-578T): 20.7 µM (inactive)
- GI50 (SNB-75): 19.5 µM (inactive)
- GI50 (M14): 17.6 µM (inactive)
- GI50 (OVCAR-3): 14.5 µM (inactive)
- GI50 (COLO 205): 17.3 µM (inactive)
- GI50 (HCT-116): 16 µM (inactive)
- GI50 (EKVX): 22.4 µM (inactive)
- GI50 (SNB-19): 20.4 µM (inactive)
- GI50 (SK-OV-3): 21.3 µM (inactive)
- GI50 (T47D): 16.4 µM (inactive)
- GI50 (PC-3): 15.1 µM (inactive)
- GI50 (MDA-MB-231): 13.6 µM (inactive)
- GI50 (UACC-62): 19 µM (inactive)
- GI50 (SK-MEL-2): 18.6 µM (inactive)
- GI50 (LOX IMVI): 15.5 µM (inactive)
- GI50 (SF-295): 17.4 µM (inactive)
- GI50 (NCI-H460): 16.7 µM (inactive)
- GI50 (OVCAR-4): 18 µM (inactive)
- GI50 (OVCAR-5): 17.7 µM (inactive)
- GI50 (HL-60): 15.3 µM (inactive)
- GI50 (SF-539): 17.5 µM (inactive)
- GI50 (UACC-257): 15.7 µM (inactive)
- GI50 (SK-MEL-5): 17.3 µM (inactive)
- GI50 (UO-31): 16.3 µM (inactive)

Compound: CC[C@]1(Cc2ccc(OC)c(OC)c2)C=[N+]([O-])O[C@H](OC2CCCC2(c2ccccc2)c2ccccc2)[C@@H]1OC(=O)C(C)(C)C (stereo partly drawn)
- GI50 (SN12C): 3.07 µM (inactive)
- GI50 (HOP-92): 4.14 µM (inactive)
- GI50 (HOP-62): 2.49 µM (inactive)
- GI50 (MCF7): 2.74 µM (inactive)
- GI50 (NCI-H226): 3.27 µM (inactive)
- GI50 (RXF 393): 1.63 µM (inactive)
- GI50 (HCT-15): 3.08 µM
- GI50 (CAKI-1): 4.19 µM (inactive)
- GI50 (MOLT-4): 2.76 µM (inactive)
- GI50 (SK-MEL-28): 2.09 µM (inactive)
- GI50 (MDA-MB-435): 2.03 µM (inactive)
- GI50 (IGROV-1): 2.62 µM (inactive)
- GI50 (786-0): 2.05 µM (inactive)
- GI50 (ACHN): 2.33 µM (inactive)
- GI50 (A549): 3.11 µM (inactive)
- GI50 (TK-10): 3.23 µM (inactive)
- GI50 (HCC 2998): 1.94 µM (inactive)
- GI50 (OVCAR-8): 2.19 µM (inactive)
- GI50 (BT-549): 4.38 µM (inactive)
- GI50 (K562): 3.61 µM (inactive)
- GI50 (HT-29): 1.86 µM (inactive)
- GI50 (SW-620): 10.1 µM (inactive)
- GI50 (NCI-H23): 3.6 µM (inactive)
- GI50 (SF-268): 3.15 µM (inactive)
- GI50 (U-251): 5.62 µM (inactive)
- GI50 (NCI/ADR-RES): 2.29 µM (inactive)
- GI50 (DU-145): 2 µM (inactive)
- GI50 (NCI-H522): 1.61 µM (inactive)
- GI50 (Hs-578T): 2.72 µM (inactive)
- GI50 (SNB-75): 3.63 µM (inactive)
- GI50 (M14): 3.51 µM (inactive)
- GI50 (OVCAR-3): 1.55 µM (inactive)
- GI50 (COLO 205): 2.6 µM (inactive)
- GI50 (SR): 7.93 µM (inactive)
- GI50 (HCT-116): 1.98 µM (inactive)
- GI50 (EKVX): 4.61 µM (inactive)
- GI50 (KM12): 2.54 µM (inactive)
- GI50 (SNB-19): 3.84 µM (inactive)
- GI50 (SK-OV-3): 15.2 µM (inactive)
- GI50 (T47D): 2.49 µM (inactive)
- GI50 (PC-3): 3.69 µM (inactive)
- GI50 (MDA-MB-231): 5.56 µM (inactive)
- GI50 (UACC-62): 3.66 µM (inactive)
- GI50 (SK-MEL-2): 2.66 µM (inactive)
- GI50 (LOX IMVI): 1.95 µM (inactive)
- GI50 (SF-295): 3.47 µM (inactive)
- GI50 (NCI-H460): 2.69 µM (inactive)
- GI50 (OVCAR-4): 3.27 µM (inactive)
- GI50 (OVCAR-5): 8.71 µM (inactive)
- GI50 (HL-60): 2.18 µM (inactive)
- GI50 (UACC-257): 3.5 µM (inactive)
- GI50 (SK-MEL-5): 2.03 µM (inactive)
- GI50 (CCRF-CEM): 2.6 µM (inactive)
- GI50 (UO-31): 1.77 µM (inactive)

— ChEMBL document CHEMBL1201862, “PubChem BioAssay data set” (2004)
